# Measured values: patent publication US20040014209A1, “Compositions and methods for modulating cell differentiation” (priority 2002, published 2004)
# Key:
# [1] = system: ventral marginal zone (VMZ) explants; experiment: VMZ explant assay: mRNA injection, cardiac-specific gene expression and beating; assay type: cell-based, Xenopus laevis
# Protocol: In a modification of this assay (FIG. 6A), we targeted mRNAs encoding Wnt and BMP antagonists to VMZ tissue by microinjection into the equatorial region of both ventral blastomeres of four-cell stage embryos. VMZ explants were isolated at stage 10, cultured, and assayed at stage 30 by RT-PCR for cardiac-specific gene expression.
# Embryos were fertilized in vitro, dejellied in 2% cysteine-HCl (pH 7.8), and maintained in 0.1×MMR. Explant dissections were performed in 0.75×MMR using an eyelash knife. Embryos were staged according to Nieuwkoop and Faber (1994).
# Marginal zone explants were dissected at stage 10. Those explants to be examined by RT-PCR for expression of heart field marker- and heart muscle-specific genes were cultured until sibling embryos were stage 30. In situ hybridization was performed on explants cultured to the equivalent of stage 23 or stage 30. Explants to be scored for formation of beating hearts were maintained until the equivalent of stage 41.
# mRNA was transcribed from pSP35-chd, pSP64-ngn, pCS2-DKK1, pCS2-Crescent, pCS2-GSK3, pCS2-WIF, pCS2-dnXwnt8, pCS2-szl, and pXT7-FrzA using the SP6 and T7 mMessage mMachine kits (Ambion). All cDNAs used encode Xenopus proteins except those for Wnt1 and crescent, which encode chick isoforms. The Xenopus form of crescent was identified while this manuscript was in preparation (Pfeffer et al. 1997; Pera and De Robertis 2000; Shibata et al. 2000) and functions identically to the chick isoform in our assays. Xenopus and chick Crescent share 88% amino acid positional identity within the cysteine-rich domain. Injections were performed in 3% Ficoll in 1×MMR. Embryos were injected equatorially into the two ventral or two dorsal blastomeres at the four-cell stage to target expression to the ventral or dorsal marginal zone. The amount of mRNA injected is given in the text. For plasmid cDNA injections, 75 pg of pCS2-Xwnt3A, pCS2-Xwnt5A, and pCSKA-Xwnt8 and 100 pg of pCS2-cWnt11 supercoiled plasmid constructs were injected.
# RT-PCR was performed as described in Schneider and Mercola (1999). Twenty-five cycles were performed at an annealing temperature of 55° C., unless otherwise noted. Expression of EF1α was used as a positive control for the reverse transcriptase reaction. The following additional primers were used: XNkx2.5+, […] (SEQ ID NO: 7); XNkx2.5−, […] (SEQ ID NO: 8); M. actin+, […] (SEQ ID NO: 9); M. actin−, […] (SEQ ID NO: 10) (22 cycles); TnIc+, […] (SEQ ID NO: 11); TnIc−, […] (SEQ ID NO: 12); MHCα+, […] GTTCCG (SEQ ID NO: 13); MHCα−, […] (SEQ ID NO: 14); Tbx5+, […] (SEQ ID NO: 15); Tbx5−, […] (SEQ ID NO: 16) (27 cycles); XNkx2.10+, […] (SEQ ID NO: 17); and XNkx2.10−, […] (SEQ ID NO: 18) (59° C., 28 cycles).
# A secreted version of the C-terminal fragment was made by fusing the secretory region of human Dkk1 to the C-terminal region cysteine rich region, as described above. This protein is referred to as “C1.” Briefly, the HindIII-Asp718 C-terminal fragment of human Dkk1 (SEQ ID NO: 1) was ligated to the sequence encoding the secretory signal of Dkk1 and cloned into a vector permitting in vitro transcription. As a control, full length Dkk1 was used. RNA was prepared in vitro from the vector as described above. The RNA encoded a polypeptide comprising amino acids 158-266 of SEQ ID NO: 2. The RNA was then injected into noncardiogenic frog embryonic mesoderm, as described above and in Schneider and Mercola (2001) Genes & Dev. 15:304.
# [2] = system: posterior lateral plate (PLP) mesoderm explants; experiment: Cardiac induction in posterior lateral plate (PLP) mesoderm explants; assay type: cell-based, chick; conditions: PLP mesoderm cocultured with transfected COS cells; RT-PCR
# Description: (§1) As crescent is expressed in anterior endoderm at approximately the stage expected for a heart-inducing factor, we investigated whether this Wnt inhibitor could induce the formation of heart muscle in explanted gastrula-stage posterior tissues. We made a replication-competent RCAS-crescent retrovirus and examined whether viral crescent expression can substitute for anterior endoderm in the cardiac induction assay. Explants of either PLP-mesoderm or PPS were infected with RCAS viruses encoding either crescent (RCAS-crescent) or alkaline phosphatase (RCAS-AP).
# (§2) Eggs were incubated to the given stage (Hamburger and Hamilton 1951), and tissues were dissected with tungsten needles in Tyrodes solution using 1% agar dishes as a base. Serum-free medium containing insulin, transferrin, and selenium was adapted from Stern and Hauschka (1995) and supplemented with 2% chick embryo extract (Life Technologies). Virally infected explants were incubated on ice with viral supernatant diluted 1:1 with culture medium for 1-2 h, then cultured overnight in a sandwich of 35% collagen pads and overlaid with the above concentration of viral supernatant and medium containing 8 μg/mL polybrene. The following day, 0.25 mL of culture medium was added to each well. Anterior endoderm and COS cell cocultures were carried out on 2-μ pore size Nucleopore filters floating on culture medium. […]
# [3] = system: posterior primitive streak (PPS) explants; experiment: Cardiac induction in posterior primitive streak (PPS) explants; assay type: cell-based, chick; conditions: PPS cocultured with transfected COS cells; RT-PCR
# Description: as §1, §2
substance,measurement,setting,value
dkk-1,Explants with rhythmic beating,"[1]; 900 pg dkk-1, 1.5 ng crescent or 1.5 ng frzb mRNA, scored at stage 41",73.2%
same,Explants with induced cement glands,[1]; VMZ explants cultured to stage 41,90.7%
same,mRNA dose inducing cardiac-specific gene expression,"[1]; VMZ explants, RT-PCR at stage 30",≥ 450 pg
same,"Heart-specific gene expression (TnIc, MHCα)","[1]; mRNA injected ventrally at four-cell stage, VMZ explants, RT-PCR stage 30",strong expression of TnIc and MHCα
same,"Cardiac gene expression (Nkx-2.5, CMHC1)",[2],induced both Nkx2.5 and CMHC1
same,"Cardiac gene expression (Nkx-2.5, CMHC1)",[3],failed to activate cardiac gene expression
